Source: PMC4704819, “Honey Bee Allatostatins Target Galanin/Somatostatin-Like Receptors and Modulate Learning: A Conserved Function?” (PLoS ONE, 2016)
*1 amine or outer side, *2 acyl side, *3 side chain or, on linkers, in order; H or OH if unused. Where a SMILES comes first, the peptide text is derived from it. Where no end group is shown, it is not given here. Side-chain parts run from the residue outwards. [ ]: non-standard residue; d: D form. The star is where a group is joined. Ethylenediamine = C(CN[*:2])N[*:1]; Hyp = O=C(O)[C@@H]1C[C@@H](O)CN1; Phg = N[C@H](C(=O)O)c1ccccc1; CO = O=C([*:1])[*:2]; Bn = c1ccc(C*)cc1

Legend:
[1] = biological target: T1, Apime-ASTA-R (Apis mellifera, UniProt A0A7M7ILT1); test: Intracellular cAMP reporter assay, HEK293 cells expressing Apime-ASTA-R; type: cell-based
T1 sequence (A0A7M7ILT1 1-361): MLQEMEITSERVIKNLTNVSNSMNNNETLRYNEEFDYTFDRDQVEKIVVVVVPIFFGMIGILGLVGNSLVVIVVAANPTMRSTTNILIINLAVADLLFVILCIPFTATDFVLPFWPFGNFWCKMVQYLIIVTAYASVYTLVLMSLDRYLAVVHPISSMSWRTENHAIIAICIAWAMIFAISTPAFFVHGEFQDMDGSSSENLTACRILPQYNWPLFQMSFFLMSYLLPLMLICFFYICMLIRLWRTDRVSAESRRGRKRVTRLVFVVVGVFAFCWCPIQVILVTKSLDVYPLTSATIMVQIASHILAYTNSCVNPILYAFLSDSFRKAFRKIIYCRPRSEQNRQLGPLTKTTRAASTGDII
Method: (§1) For intracellular cAMP measurements, cells were bathed in trypsin EDTA and collected, then suspended in fresh DMEM. Transfections with pRK5-ApimeAstC-R, pRK5-ApimeAstA-R or empty pRK5 vector were carried out in 15 ml Falcon tubes. Transfection medium for HEK293 cells was prepared using the Lipofectamine LTX kit (Invitrogen) with 2.5 ml Opti-MEM® (Gibco), 12.5 μl Plus™ Reagent and 4 μg of ApimeASTC-R (or ApimeASTA-R, or empty) expression construct, and 2 μg of CRE(6x)-Luc plasmid. The luciferase ORF, downstream of six tandem repeats of a cyclic AMP responsive element (CRE), in front of a minimum collate promoter, was used as a reporter gene (this reporter plasmid has been used by others)
We followed a previousy published protocol: HEK293 cells in Dulbecco's Modified Eagles Medium nutrient mixture F12-Ham (DMEM/F12, Sigma–Aldrich) supplemented with 10% heat-inactivated fetal bovine serum (Gibco), 100 IU/ml penicillin, 100 μg/ml streptomycin (Gibco) were maintained in an incubator at 37°C with constant supply of 5% CO2, until they reached 60–80% confluence. Cells were then bathed in trypsin EDTA (Gibco) until rounded. The flask was then tapped to loosen the cells, which were subsequently washed off with 5 ml DMEM/F12. […]
Prior to measuring cAMP, the cell medium was removed by carefully inverting the 96-well plate on filter paper and quickly replaced with 100 μl of DMEM/F12 without phenol red (Invitrogen), but containing 200 μM 3-isobutyl-1-methylxanthine (IBMX, Sigma–Aldrich) to prevent cAMP breakdown, as well as drugs to be tested. […] The 96-well plate was then placed in the dark for 15 min before light emission resulting from luciferase enzymatic activity was recorded. Measurements lasting 0.2 s/well were taken every 55 s for 10 cycles using a FLUOstar Omega microplate reader (BMG Labtech). Results were analyzed by means of the Omega software packages and further processed by Excel and GraphPad Prism softwares. […]

[2] = biological target: T2, Apime-ASTC-R (Apis mellifera, UniProt A0A7M7GNE5); test: Intracellular cAMP reporter assay, HEK293 cells expressing Apime-ASTC-R; type: cell-based; conditions: Fig 5B, 2 transfections in duplicates or triplicates
T2 sequence (A0A7M7GNE5 1-423): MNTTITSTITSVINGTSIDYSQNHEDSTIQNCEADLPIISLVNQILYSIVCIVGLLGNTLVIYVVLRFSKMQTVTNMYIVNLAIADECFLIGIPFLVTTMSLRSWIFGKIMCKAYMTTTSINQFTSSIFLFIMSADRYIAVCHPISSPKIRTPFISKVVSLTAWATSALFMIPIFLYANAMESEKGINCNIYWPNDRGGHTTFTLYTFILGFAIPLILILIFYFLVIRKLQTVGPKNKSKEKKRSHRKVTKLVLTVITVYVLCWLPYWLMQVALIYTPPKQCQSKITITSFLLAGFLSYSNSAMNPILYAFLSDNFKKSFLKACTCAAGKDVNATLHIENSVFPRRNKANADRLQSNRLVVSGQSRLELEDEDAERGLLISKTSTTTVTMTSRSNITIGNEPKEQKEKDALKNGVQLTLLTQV
Method: as §1
(§2) We followed a previousy published protocol: HEK293 cells in Dulbecco's Modified Eagles Medium nutrient mixture F12-Ham (DMEM/F12, Sigma–Aldrich) supplemented with 10% heat-inactivated fetal bovine serum (Gibco), 100 IU/ml penicillin, 100 μg/ml streptomycin (Gibco) were maintained in an incubator at 37°C with constant supply of 5% CO2, until they reached 60–80% confluence. Cells were then bathed in trypsin EDTA (Gibco) until rounded. The flask was then tapped to loosen the cells, which were subsequently washed off with 5 ml DMEM/F12. The cells were gently centrifuged at 800 rpm for 5 minutes and carefully suspended in fresh DMEM, which was divided in two for transfection with receptor constructs or empty vectors. After 5 min at room temperature, 30 μl LTX was added. After an incubation period of 30 min at room temperature, the DNA/LTX mix was added to the cells. The cells were then aliquoted (100 μl per well) into a clear bottom 96-well plate (Greiner bio-one #655090) and incubated overnight (37°C, 5% CO2).
(§3) Prior to measuring cAMP, the cell medium was removed by carefully inverting the 96-well plate on filter paper and quickly replaced with 100 μl of DMEM/F12 without phenol red (Invitrogen), but containing 200 μM 3-isobutyl-1-methylxanthine (IBMX, Sigma–Aldrich) to prevent cAMP breakdown, as well as drugs to be tested. In each experiment, some wells were used to measure basal levels of cAMP in the cells (negative control), while others were used to measure cAMP levels in cells exposed to 10 μM forskolin analogue (NKH-477, Sigma Aldrich, positive control). […] All cells were incubated at 37°C and 5% CO2 for 3–4 h to allow transcription of the reporter gene before 100 μl of freshly reconstituted Steadylite Plus™ substrate (PerkinElmer) was added to each well. The 96-well plate was then placed in the dark for 15 min before light emission resulting from luciferase enzymatic activity was recorded. Measurements lasting 0.2 s/well were taken every 55 s for 10 cycles using a FLUOstar Omega microplate reader (BMG Labtech). Results were analyzed by means of the Omega software packages and further processed by Excel and GraphPad Prism softwares. In order to facilitate comparisons across experiments, bioluminescence levels are expressed relative to those in mock-transfected cells (transfected with the vector devoid of the receptor sequence) untreated with NKH-477, which were arbitrarily set at 100.
(§4) To test this prediction, we expressed the two receptors separately in HEK293 cells together with the luciferase reporter gene, downstream of the cAMP response element, CRE, but without exogenous G proteins.

[3] = tested on: mock-transfected HEK293 cells; test: Intracellular cAMP reporter assay, mock-transfected HEK293 cells (empty vector); type: cell-based, human
Method: as §1, §2, §3, §4

[4] = biological target: T1, Apime-ASTA-R; test: Intracellular calcium measurement, HEK293 cells expressing Apime-ASTA-R with Gαqi9 chimeric G protein; type: cell-based
Method: (§5) This vector contains an ATG initiation codon in phase with a mammalian signal peptide sequence of metabotropic glutamate receptor 5 to address receptor protein to the cell membrane, with a hemagglutinin sequence (TAG HA), and MluI and HindIII restriction sites used for cloning. The coding regions of the genes of interest were PCR amplified from cDNA template. After extraction from whole brains, 1 μg of total RNA was reverse-transcribed with random primers. […] PCR reactions included: 30s at 98°C, then 30 cycles of 10s at 98°C, 30s at 60°C, 1 min at 72°C and finally, 5 minutes at 72°C. Cloning required several amplification and digestion steps to insert the full cDNA sequences in the vector.
In all cases, 2 μg of plasmid DNA encoding the Gαqi9 chimeric G protein was included to enable artificial coupling of the receptors to phospholipase C. Electroporation (250 V, 800 μF, Biorad GenePulser X-cell) was performed in a total volume of 300 μl of electroporation buffer (50 mM K2HPO4, 20 mM CH3COOK, 20 mM KOH, 26.5 mM MgSO4, pH 7.4). After electroporation, cells were resuspended in 10 ml of culture medium and split (100 μl/well) into polyornithine-coated (Sigma #P3655), black-walled, clear bottom 96-well plates (Greiner bio-one #655090) and grown for a further 48 h prior to analyzing receptor properties. All products used for cell culture were purchased from Invitrogen Life Technologies.
Cells were washed with freshly prepared 20 mM Hepes, 1 mM MgSO4, 3.3 mM Na2CO3, 1.3 mM CaCl2, 0.1% BSA, 2.5 mM probenecid in 1X Hank's balanced salt solution (Gibco #14185), pH7.4 buffer and loaded with 1 μM Ca^2+-sensitive fluorescent dye Fluo-4 AM (Invitrogen # F14202) for 1 h at 37°C. Cells were washed once and incubated with 50 μl of buffer. A plate was prepared with the various concentrations of peptides to be tested, and 50 μl of 2X concentrated-drug solution was added in each well after 20 s of recording. Fluorescence signals (excitation 485 nm, emission 525 nm) were measured by using the fluorescence microplate reader Flexstation (Molecular Devices) at sampling intervals of 1.5 s for 60 s. All represented data correspond to means ± standard deviation (SD) from experiments performed in triplicate.
This method allows detecting ligand-induced activation of the receptor by measuring the release of intracellular calcium.

[5] = biological target: T2, Apime-ASTC-R; test: Intracellular calcium measurement, HEK293 cells expressing Apime-ASTC-R with Gαqi9 chimeric G protein; type: cell-based; conditions: concentrations up to 0.1mM; data not shown
Method: as §5
In all cases, 2 μg of plasmid DNA encoding the Gαqi9 chimeric G protein was included to enable artificial coupling of the receptors to phospholipase C. […]
Cells were washed with freshly prepared 20 mM Hepes, 1 mM MgSO4, 3.3 mM Na2CO3, 1.3 mM CaCl2, 0.1% BSA, 2.5 mM probenecid in 1X Hank's balanced salt solution (Gibco #14185), pH7.4 buffer and loaded with 1 μM Ca^2+-sensitive fluorescent dye Fluo-4 AM (Invitrogen # F14202) for 1 h at 37°C. […] Fluorescence signals (excitation 485 nm, emission 525 nm) were measured by using the fluorescence microplate reader Flexstation (Molecular Devices) at sampling intervals of 1.5 s for 60 s. […]

## C=C[C@@]1(C)CC(=O)[C@]2(O)[C@@]3(C)[C@@H](O)CCC(C)(C)[C@@H]3[C@H](OC(=O)CCN(C)C)[C@H](OC(C)=O)[C@@]2(C)O1.Cl [NKH-477, reference compound]
[1]; Fig 5B, 2 transfections in duplicates or triplicates
  ability to increase bioluminescence versus mock-transfected cells, in words: reduced ability to increase bioluminescence levels
[1]; same concentrations as in mock cells (10 nM to 10 μM), CRE-luciferase, IBMX, Fig 5B, 2 transfections in duplicates or triplicates
  increase in cAMP levels (bioluminescence): 1.59 fold
[2]
  ability to increase bioluminescence versus mock-transfected cells, in words: reduced ability to increase bioluminescence levels
[2]; same concentrations as in mock cells (10 nM to 10 μM), CRE-luciferase, IBMX
  increase in cAMP levels (bioluminescence): 1.24 fold
[3]; 10 nM to 10 μM
  increase in bioluminescence (cAMP), in words: increased bioluminescence in a dose-dependent manner
[3]; 10 μM, CRE-luciferase, 200 μM IBMX, Fig 5B, 2 transfections in duplicates or triplicates
  increase in bioluminescence (cAMP) compared to baseline: 2.5 fold

## NCCCC[C@@H]1NC(=O)[C@@H](Cc2c[nH]c3ccccc23)NC(=O)[C@H](c2ccccc2)NC(=O)[C@@H]2C[C@@H](OC(=O)NCCN)CN2C(=O)[C@H](Cc2ccccc2)NC(=O)[C@H](Cc2ccc(OCc3ccccc3)cc2)NC1=O [SOM230, reference compound] (cyclo([Hyp]([CO-Ethylenediamine])[Phg][dW]KY(Bn)F); ring closure inferred)
[4]; concentrations up to 0.1mM, data not shown
  calcium release: No calcium release was detected
[5]
  calcium release: No calcium release was detected

## GRQPYSFGL-NH2 [Apime-ASTA]
[4]; HEK293, Gαqi9, Fluo-4 AM, Flexstation (ex 485 nm, em 525 nm), pH 7.4, experiments in triplicate, read-out: EC50, calcium release
  EC50: 1.99 nM
[1]; CRE-luciferase, 200 μM IBMX, no exogenous G protein, 37°C 3–4 h, normalized to mock-transfected cells, 3 independent transfections in triplicate, Fig 5C, read-out: mean EC50, increase in cAMP levels
  EC50: 103 nM
